Source: patent US12642759B2, “Cosmetic composition for improving skin containing extracts of polygala tenuifolia, angelica dahurica and elsholtzia splendens” (SOOY-K CO., LTD., priority 2023, dated 2026)

Assays:
[1] = DPPH radical scavenging assay; type: biochemical; conditions: concentration 50 μg/mL, positive control
Experimental: Antioxidant efficacy was measured by DPPH radical scavenging activity based on the Blois' method. This assay is one of the generation methods. DPPH is purple in the radical state, and when reduced by receiving electrons, it changes its color to yellow (DPPH-H). 100 μL of 0.2 mM DPPH solution and 80 μL of samples of each concentration were mixed in a 96-well plate, reacted for 30 minutes at room temperature in the dark, and then absorbance was measured at 517 nm to calculate radical scavenging activity according to Equation 1 below. Ascorbic acid, an antioxidant, was used as a positive control, and a DPPH solution which was not treated with a sample was used as a negative control. [formula] ABTS Radical Scavenging Assay

[2] = ABTS radical scavenging assay; type: biochemical; conditions: concentration 50 μg/mL, positive control
Experimental: Antioxidant activity was measured using […] (ABTS) radical with reference to the Van den Berg method. This method uses the principle that ABTS+ radical, which has a blue-green color, is made to be transparent by antioxidants. 7 mM ABTS and 2.4 mM potassium persulfate were mixed and left at room temperature in the dark for 24 hours to form ABTS. Absorbance was measured at 734 nm, and the material was used for the experiment after adjusting the absorbance to 0.7±0.1. 100 μL of ABTS working solution and 100 μL of samples of each concentration were mixed and reacted in the dark for 10 minutes. Then, the absorbance was measured at […] and the radical scavenging activity was calculated as shown in Equation 2 below. Ascorbic acid, an antioxidant, was used as a positive control, and an ABTS solution which was not treated with a sample was used as a negative control. [formula] 1-5. Cell Culture

[3] = tested on: Staphylococcus aureus; assay: Antibacterial activity, paper disc method; type: cell-based; conditions: 4 mg/mL, positive control, 8 mm paper disc, read-out: Clear zone
Experimental: The antibacterial effect was measured against Staphylococcus aureus (S. aureus). The paper disc method was used to measure the antibacterial activity of the samples. Each strain cultured on a solid plate medium was taken by a platinum loop, then inoculated into a 4 mL liquid medium, and cultured for 20 hours to activate it. Then, 500 μL of the strain was inoculated into 3 mL of liquid medium and cultured for 4 hours. The strain was inoculated onto a solid plate medium so that the number of bacteria was 1×10^6-5×10^6/mL, and then spread evenly using a spreader. Each sample was prepared according to the concentrations, and 50 μL of the sample was absorbed into a paper disc (Toyo, Japan) with a diameter of 8 mm. The paper disc was placed on a solid plate medium inoculated with the strain and cultured at 37° C. for 20 hours. Then, the diameter of the clear zone around the disc was measured. Disc diffusion test is performed by placing a disc into which a sample was absorbed on an agar plate medium inoculated with bacteria and culturing them, and then measuring the diameter of the inhibition zone (clear zone) of the sample that diffused around the disc as much as it inhibited the growth of the bacteria.

| Structure (SMILES) | DPPH radical scavenging activity (antioxidant activity) [1] [%] | ABTS radical scavenging activity (antioxidant activity) [2] [%] | zone of inhibition at 4000 µg/mL [3] [mm] |
| --- | --- | --- | --- |
| O=C1O[C@H]([C@@H](O)CO)C(O)=C1O [Ascorbic acid, ascorbic acid] | 87.21±0.56 | 99.68±0.21 |  |
| COC(=O)c1ccc(O)cc1 [Methyl paraben] |  |  | 8.5 |
